Assay results taken from ChEMBL document CHEMBL5154649, “Design, synthesis, and characterization of novel aminoalcohol quinolines with strong in vitro antimalarial activity” (Eur J Med Chem, 2022).

Experiments:
[1] = Cytotoxicity against Chinese hamster CHO cells assessed as reduction in cell viability incubated for 24 hrs by MTT assay; format: toxicity, cell-based, Cricetulus griseus
[2] = Cytotoxicity against human THP-1 cells assessed as reduction in cell viability incubated for 72 hrs by MTT assay; format: toxicity, cell-based
[3] = Selectivity index, ratio of IC50 for cytotoxicity against human HepG2 cells to IC50 for antiplasmodial activity against CQ-susceptible Plasmodium falciparum 3D7 by SYBR Green 1 dye based fluorescence assay; format: toxicity, cell-based; details: HepG2 cells versus CQ-susceptible Plasmodium falciparum 3D7, read-out: Ratio IC50
[4] = Selectivity index, ratio of IC50 for cytotoxicity against human HFF cells to IC50 for antiplasmodial activity against CQ-susceptible Plasmodium falciparum 3D7 by SYBR Green 1 dye based fluorescence assay; format: toxicity, cell-based; details: HFF cells versus CQ-susceptible Plasmodium falciparum 3D7, read-out: Ratio IC50
Plasmodium falciparum [5] = assay: Antiplasmodial activity against CQ-susceptible Plasmodium falciparum 3D7 assessed as inhibition of parasite growth measured after 48 hrs by SYBR Green 1 dye based fluorescence assay; format: functional, organism-based; details: 3D7, 48 h
[6] = Cytotoxicity against human HepG2 cells assessed as reduction in cell viability incubated for 72 hrs by MTT assay; format: toxicity, cell-based
Plasmodium falciparum [7] = assay: Selectivity index, ratio of IC50 for antiplasmodial activity against CQ-susceptible Plasmodium falciparum 3D7 to IC50 for antiplasmodial activity against CQ-resistant Plasmodium falciparum W2 by SYBR Green 1 dye based fluorescence assay; format: functional
[8] = Cytotoxicity against human HFF cells assessed as reduction in cell viability incubated for 72 hrs by MTT assay; format: toxicity, cell-based
[9] = Selectivity index, ratio of IC50 for cytotoxicity against human THP-1 cells to IC50 for antiplasmodial activity against CQ-susceptible Plasmodium falciparum 3D7 by SYBR Green 1 dye based fluorescence assay; format: toxicity, cell-based; details: THP-1 cells versus CQ-susceptible Plasmodium falciparum 3D7, read-out: Ratio IC50
Plasmodium falciparum [10] = assay: Antiplasmodial activity against CQ-resistant Plasmodium falciparum W2 assessed as inhibition of parasite growth measured after 48 hrs by SYBR Green 1 dye based fluorescence assay; format: functional, organism-based; details: W2, 48 h
[11] = Selectivity index, ratio of IC50 for cytotoxicity against chinese hamster CHO cells to IC50 for antiplasmodial activity against CQ-susceptible Plasmodium falciparum 3D7 by SYBR Green 1 dye based fluorescence assay; format: toxicity, cell-based; details: CHO cells versus CQ-susceptible Plasmodium falciparum 3D7, read-out: Ratio IC50
[12] = Selectivity index, ratio of IC50 for human HFF cells to IC50 for antiplasmodial activity against Plasmodium falciparum 3D7 infected in human erythrocytes by HRP2-ELISA; format: toxicity, cell-based; details: read-out: Ratio IC50
Cytochrome P450 3A4 [13] = target: T1, Cytochrome P450 3A4 (Homo sapiens, UniProt P08684); assay: Inhibition of CYP3A4 in human liver microsomes assessed as reduction in 6-beta-hydroxy-testosterone formation using testosterone as substrate preincubated for 20 mins in absence of NADPH followed by incubation with substrate for 10 mins by LC-MS/MS analysis; format: ADME, Microsome
[14] = Metabolic stability in human liver microsomes assessed as intrinsic clearance at 0.5 uM incubated for 30 mins by LC-MS/MS analysis; format: ADME, Microsome; details: read-out: CLH
[15] = Drug metabolism in rat liver microsomes assessed as oxidative metabolite formation measured after 5 mins by LC-MS analysis; format: ADME, Microsome
[16] = Selectivity index, ratio of IC50 for cytotoxicity against chinese hamster CHO cells to IC50 for antiplasmodial activity against Plasmodium falciparum 3D7 infected in human erythrocytes by HRP2-ELISA; format: toxicity, cell-based; details: read-out: Ratio IC50
Cytochrome P450 3A4 [17] = target: T1, Cytochrome P450 3A4; assay: Inhibition of CYP3A4 in human liver microsomes assessed as reduction in 1'-hydroxy midazolam formation using midazolam as substrate preincubated for 20 mins in presence of NADPH followed by incubation with substrate for 10 mins by LC-MS/MS analysis; format: ADME, Microsome
[18] = Genotoxicity in CHO-K1 cells at 0.001 to 1 mM incubated for 3 hrs in presence of S9 mix by in vitro micronucleus test; format: toxicity, cell-based, Cricetulus griseus; details: chinese hamster, cho-k1, 3 h, 1000 µM, dose 0.001-1 mM
Plasmodium falciparum [19] = assay: Antiplasmodial activity CQ-resistant Plasmodium falciparum W2 infected in human erythrocytes assessed as inhibition of parasite growth measured after 72 hrs by HRP2-ELISA; format: functional, organism-based; details: W2, Erythrocyte
[20] = Apparent permeability across apical to basolateral side in human Caco-2/TC7 cells at 20 uM incubated for 2 hrs by LC-MS/MS analysis; format: ADME, cell-based, Caco2/TC7
[21] = Metabolic stability in rat liver microsomes assessed as intrinsic clearance at 0.5 uM incubated for 30 mins by LC-MS/MS analysis; format: ADME, Microsome; details: read-out: CLH
[22] = Genotoxicity in CHO-K1 cells at 0.001 to 1 mM incubated for 24 hrs without metabolic activation by in vitro micronucleus test; format: toxicity, cell-based, Cricetulus griseus; details: chinese hamster, cho-k1, 24 h, 1000 µM, dose 0.001-1 mM
[23] = target: Voltage-gated inwardly rectifying potassium channel KCNH2 (Homo sapiens, UniProt Q12809); assay: Inhibition of hERG channel expressed in CHO cells at holding potential of -80 mV by whole cell patch clamp method; format: toxicity, cell-based
[24] = Metabolic stability in mouse liver microsomes assessed as intrinsic clearance at 0.5 uM incubated for 30 mins by LC-MS/MS analysis; format: ADME, Microsome; details: read-out: CLH
Plasmodium falciparum [25] = assay: Antiplasmodial activity against CQ-susceptible Plasmodium falciparum 3D7 infected in human erythrocytes assessed as inhibition of parasite growth measured after 72 hrs by HRP2-ELISA; format: functional, organism-based; details: 3D7, Erythrocyte
Cytochrome P450 3A4 [26] = target: T1, Cytochrome P450 3A4; assay: Inhibition of CYP3A4 in human liver microsomes assessed as reduction in 1'-hydroxy midazolam formation using midazolam as substrate preincubated for 20 mins in absence of NADPH followed by incubation with substrate for 10 mins by LC-MS/MS analysis; format: ADME, Microsome
[27] = Drug metabolism in mouse liver microsomes assessed as (S)-2-(((S)-2-(2,8-Bis(trifluoromethyl)quinolin-4-yl)-2-hydroxyethyl)amino)-3-phenylpropan-1-ol metabolite formation measured after 5 mins by LC-MS analysis; format: ADME, Microsome
[28] = Selectivity index, ratio of IC50 for cytotoxicity against human HepG2 cells to IC50 for antiplasmodial activity against Plasmodium falciparum 3D7 infected in human erythrocytes by HRP2-ELISA; format: toxicity, cell-based; details: read-out: Ratio IC50
Plasmodium falciparum [29] = assay: Selectivity index, ratio of IC50 for antiplasmodial activity against CQ-susceptible Plasmodium falciparum 3D7 to IC50 for antiplasmodial activity CQ-resistant Plasmodium falciparum W2 by HRP2-ELISA; format: functional
[30] = Apparent permeability across apical to basolateral side in human Caco-2/TC7 cells assessed as drug recovery at 20 uM incubated for 2 hrs by LC-MS/MS analysis; format: ADME, cell-based, Caco2/TC7; details: read-out: Drug recovery
Cytochrome P450 3A4 [31] = target: T1, Cytochrome P450 3A4; assay: Inhibition of CYP3A4 in human liver microsomes assessed as reduction in 6-beta-hydroxy-testosterone formation using testosterone as substrate preincubated for 20 mins in presence of NADPH followed by incubation with substrate for 10 mins by LC-MS/MS analysis; format: ADME, Microsome
[32] = Selectivity index, ratio of IC50 for cytotoxicity against human THP-1 cells to IC50 for antiplasmodial activity against Plasmodium falciparum 3D7 infected in human erythrocytes by HRP2-ELISA; format: toxicity, cell-based; details: read-out: Ratio IC50
[33] = Drug metabolism in mouse liver microsomes assessed as (1S)-2-amino-1-[2,8-bis(trifluoromethyl)quinolin-4-yl]ethan-1-ol metabolite formation measured after 5 mins by LC-MS analysis; format: ADME, Microsome
[34] = Drug metabolism in human liver microsomes assessed as oxidative metabolite formation measured after 5 mins by LC-MS analysis; format: ADME, Microsome

T1 sequence (P08684 whole entry): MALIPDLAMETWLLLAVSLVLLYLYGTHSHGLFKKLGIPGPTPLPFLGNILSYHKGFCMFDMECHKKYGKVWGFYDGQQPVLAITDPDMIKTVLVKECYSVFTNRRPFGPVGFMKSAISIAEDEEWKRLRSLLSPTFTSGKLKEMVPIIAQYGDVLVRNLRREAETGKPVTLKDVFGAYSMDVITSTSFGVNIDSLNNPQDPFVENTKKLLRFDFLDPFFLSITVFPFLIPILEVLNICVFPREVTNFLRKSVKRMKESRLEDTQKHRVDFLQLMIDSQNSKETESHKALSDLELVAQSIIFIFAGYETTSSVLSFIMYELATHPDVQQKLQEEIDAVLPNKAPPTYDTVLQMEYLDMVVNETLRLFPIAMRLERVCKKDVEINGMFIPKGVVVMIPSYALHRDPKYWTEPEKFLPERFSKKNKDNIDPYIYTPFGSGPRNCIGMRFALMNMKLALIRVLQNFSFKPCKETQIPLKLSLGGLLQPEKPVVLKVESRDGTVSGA
Chain of Voltage-gated inwardly rectifying potassium channel KCNH2 (Q12809 whole entry): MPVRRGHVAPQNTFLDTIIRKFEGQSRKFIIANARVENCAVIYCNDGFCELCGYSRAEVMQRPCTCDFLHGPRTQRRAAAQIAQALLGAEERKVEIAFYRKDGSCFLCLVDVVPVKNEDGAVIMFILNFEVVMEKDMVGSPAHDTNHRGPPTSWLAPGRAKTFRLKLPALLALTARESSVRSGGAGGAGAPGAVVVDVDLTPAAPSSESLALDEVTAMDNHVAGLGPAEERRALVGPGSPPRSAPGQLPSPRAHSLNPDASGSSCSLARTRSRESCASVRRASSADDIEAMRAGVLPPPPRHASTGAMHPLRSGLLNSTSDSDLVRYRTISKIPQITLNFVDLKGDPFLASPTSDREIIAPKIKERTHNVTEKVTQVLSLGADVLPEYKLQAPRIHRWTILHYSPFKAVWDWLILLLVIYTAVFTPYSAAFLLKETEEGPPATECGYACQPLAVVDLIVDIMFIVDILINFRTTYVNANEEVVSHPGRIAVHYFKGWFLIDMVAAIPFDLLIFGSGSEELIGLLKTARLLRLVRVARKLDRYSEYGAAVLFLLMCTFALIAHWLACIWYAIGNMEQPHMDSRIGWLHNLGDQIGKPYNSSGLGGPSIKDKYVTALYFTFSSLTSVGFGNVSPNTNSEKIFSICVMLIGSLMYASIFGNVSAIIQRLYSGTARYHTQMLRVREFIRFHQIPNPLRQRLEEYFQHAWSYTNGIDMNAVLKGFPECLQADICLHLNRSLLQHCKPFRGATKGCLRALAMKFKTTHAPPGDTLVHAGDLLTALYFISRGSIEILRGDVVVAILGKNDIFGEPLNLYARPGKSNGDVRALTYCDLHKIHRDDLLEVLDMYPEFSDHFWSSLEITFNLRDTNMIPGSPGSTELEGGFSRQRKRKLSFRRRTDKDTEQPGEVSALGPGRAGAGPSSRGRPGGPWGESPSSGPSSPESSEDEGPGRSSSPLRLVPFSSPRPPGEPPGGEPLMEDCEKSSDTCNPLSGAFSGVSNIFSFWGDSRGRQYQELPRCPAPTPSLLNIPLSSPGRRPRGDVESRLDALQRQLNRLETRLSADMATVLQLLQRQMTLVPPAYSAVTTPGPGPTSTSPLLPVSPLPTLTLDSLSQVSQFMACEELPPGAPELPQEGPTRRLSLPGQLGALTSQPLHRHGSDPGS

For O[C@@H](CNCCN1CCN(C(c2ccccc2)c2ccccc2)CC1)c1cc(C(F)(F)F)nc2c(C(F)(F)F)cccc12, the IC50 at 24 h [1] was 10.2 µM, the IC50 at 72 h [2] was 7.6 µM and the selectivity ratio [3] was 73. The selectivity ratio [4] was 308, the IC50 (Plasmodium falciparum [5]) was 0.0451 µM and the IC50 at 72 h [6] was 3.3 µM. It also gave a Ratio IC50 (Plasmodium falciparum [7]) of 0.6, an IC50 at 72 h [8] of 13.9 µM and a selectivity ratio [9] of 168. The IC50 (Plasmodium falciparum [10]) was 0.0765 µM and the selectivity ratio [11] was 226.

Molecule COC[C@H](Cc1ccccc1)NC[C@@H](O)c1cc(C(F)(F)F)nc2c(C(F)(F)F)cccc12 has an IC50 at 24 h [1] of 47.3 µM, a selectivity ratio [12] of 2970 and an IC50 (Cytochrome P450 3A4 [13]) of 2.9 µM. The IC50 at 72 h [2] was 16.2 µM, the microsomal CLint at 0.5 µM [14] was over 1000 µL/min/mg and the Drug metabolism [15] was “Metabolite_Detected”. It also gave a selectivity ratio [16] of 3170, an IC50 (Plasmodium falciparum [5]) of 0.0151 µM and an IC50 (Cytochrome P450 3A4 [17]) of 5.9 µM. For the same molecule, the Activity [18] was “Non-Toxic”, the IC50 (Plasmodium falciparum [19]) was 0.011 µM and the Papp A→B at 2 h, 20 µM [20] was 6.1 ×10⁻⁶ cm/s. The microsomal CLint at 0.5 µM [21] was over 1000 µL/min/mg, the IC50 at 72 h [6] was 11.6 µM and the Activity [22] was “Non-Toxic”. It also gave a Ratio IC50 (Plasmodium falciparum [7]) of 1.1, an IC50 [23] of 17.3 µM and a microsomal CLint at 0.5 µM [24] of over 1000 µL/min/mg. It also gave an IC50 (Plasmodium falciparum [25]) of 0.0149 µM, an IC50 (Cytochrome P450 3A4 [26]) of 2.8 µM and an IC50 at 72 h [8] of 44.2 µM. For the same molecule, the Drug metabolism [27] was “Metabolite_Detected”, the selectivity ratio [28] was 778 and the Ratio IC50 (Plasmodium falciparum [29]) was 1.35. It also gave a recovery at 2 h, 20 µM [30] of 81%, an IC50 (Plasmodium falciparum [10]) of 0.0132 µM and an IC50 (Cytochrome P450 3A4 [31]) of 2.3 µM. The selectivity ratio [32] was 1090, the Drug metabolism [33] was “Metabolite_Detected” and the Drug metabolism [34] was “Metabolite_Detected”.
